These results are taken from patent US8791144B2, “Substituted N-phenyl-1-(4-Pyridinyl)-1H-pyrazol-3-amines” (Janssen Pharmaceutica NV, priority 2009, dated 2014).

Structures are written as SMILES.

Series [1] has as its target T1, hα7-wt nAChR (Homo sapiens, UniProt P36544). The series can be described thus: Patch-clamp current recording (whole-cell voltage clamp), potentiation of choline current and PAM type. It counts as cell-based. Also noted: key: Type 0 compounds minimally enhance the effect size of the current elicited by 1 mM choline.; Type 1 compounds enhance the effect size of the current elicited by 1 mM choline but minimally alter the kinetics of the receptor.; Type 2 compounds enhance the effect size of the current elicited by 1 mM choline while reducing the rate and/or the extent of desensitization.; Type 3 compounds enhance the effect size of the current elicited by 1 mM choline. When tested at higher concentrations up to 10 μM they completely inhibit desensitization, in particular a 1 mM choline application of 250 milliseconds.; Type 4 compounds allow for an initial desensitization of the receptor followed by a re-opening of the receptor during agonist application. The conditions noted are these: hα7-wt nAChR-expressing GH4C1 cells, 1 mM choline. As to the method: The compounds of the present invention are classified as type 0-4, based on qualitative kinetic properties, as determined by whole-cell voltage-clamp recordings. This classification is based on the effect of an α7 PAM compound, as described hereinbefore, on the signal elicited by an agonist application. In particular, said agonist is choline at a concentration of 1 mM. In a preferred experimental setting, said α7 PAM compound and choline are simultaneously applied to the cell, as described hereinafter. Desensitization is defined as the closure of the receptor upon activation during the application of the agonist in whole-cell voltage-clamp electrophysiology measurements seen as the reduction of the […] current after initial activation by the agonist.
The definition of the PAM types 0-4 is described hereinafter: • Type 0 compounds minimally enhance the effect size of the current elicited by 1 mM choline. • Type 1 compounds enhance the effect size of the current elicited by 1 mM choline but minimally alter the kinetics of the receptor. In particular, the rate and the extent of desensitization, elicited by the agonist, is not affected. The compound-modulated response to 1 mM choline, therefore, is a close to linear scaling of the 1 mM choline response in absence of the α7 PAM compound. • Type 2 compounds enhance the effect size of the current elicited by 1 mM choline while reducing the rate and/or the extent of desensitization. • Type 3 compounds enhance the effect size of the current elicited by 1 mM choline. […] At low-potency concentrations of the α7 PAM compound, the agonist-induced activation, which is followed by desensitization, can still be separated from the compound-induced re-opening as an initial inward current-maximum. At higher potency concentrations of the α7 PAM compound, the re-opening occurs faster than the closure due to desensitization so that the initial current-maximum disappears.
A compound was considered to have interesting PAM-like activity when the potentiation of the peak current was at least 200% compared to the control choline response (=100%). Such compounds are classified as belonging to a particular PAM type in the Experimental Part. Compounds not meeting the condition are not classified as belonging to a particular PAM-type.
The compounds also have a potentiating effect on the response to choline when measured by whole-cell patch clamp electrophysiology in GH4C1 cells stably over-expressing the human wild-type α7 receptor.
Patch-clamp recording from mammalian cells has provided a powerful means of assessing the function of membrane-bound proteins thought to be subunits of ligand-gated ion channels. Activation of such proteins by endogenous or exogenous ligands cause opening of a pore associated with the receptor through which ions flow down their electrochemical gradient. In the case of the hα7-wt nAChR-expressing GH4C1 recombinant cell line the preferential permeability to calcium of this receptor means that calcium flows into the cell upon activation by ACh, choline and other nicotinic ligands giving rise to a calcium current. Since this receptor rapidly desensitizes in the presence of agonist it is important an application system is used which is capable of very rapid switching of solutions (<100 ms) to prevent partial or full desensitisation of receptor responses coincident with the time of agonist application. Consequently, a second convenient technique to assess the enhancement of nicotinic efficacy is patch-clamp recording from hα7-wt nAChR-expressing GH4C1 cells coupled with a rapid-application system.
• a) Assay Buffers • The external recording solution consisted of 152 mM NaCl, 5 mM KCl, 1 mM MgCl2, 1 mM Calcium, 10 mM HEPES; pH 7.3. […]
(In general: In patch-clamp work, channel activity is measured electrically.)

Series [2] concerns the target T1, hα7-wt nAChR. Nature of the series: Ca2+ flux imaging (FDSS): potentiation of the choline response. The settings on record: for EC50: Ca2+ assay as described in D.1, potentiation of choline response, hα7-wt nAChR, read-out: Potency (pEC50) (converted). It is filed as cell-based. On the procedure:
• a) Assay Buffer • Hanks buffered saline solution (HBSS, Invitrogen, Belgium), supplemented with 10 mM HEPES (Invitrogen, Belgium), CaCl2 to a final concentration of 5 mM, 0.1% Bovine serum albumin (Sigma-Aldrich NV, Belgium). • b) Calcium-Sensitive Dye—Fluo-4AM • Fluo-4AM (Molecular Probes, USA) was dissolved in DMSO containing 10% Pluronic acid (Molecular Probes, USA) to give a stock solution which was diluted in assay buffer supplemented with 5 mM probenicid (Sigma, Aldrich NV, Belgium) to give a final concentration of 2 μM. • c) 384-Well Plates • Black 384 well plate black/clear plates, PDL pre-coated (Corning, Incorporated, USA) • d) Calcium Flux Measurement • A Functional drug screening system (FDSS, Hamamatsu) was used to measure intracellular free-calcium flux signals. Method
Monolayers of hα7-wt nAChR-expressing cells were grown in multi-well plates, in particular black-sided, transparent bottomed 384 well plates coated with poly-D-lysine for 24 hours prior to loading with a fluorescent calcium indicator, in a particular embodiment loading with fluo-4AM for up to 120 minutes.
PAM activity was detected in real time by applying the compounds to be tested to the loaded cells along with a α7 nicotinic receptor agonist during constant monitoring of cellular fluorescence in a FDSS. Compounds giving peak fluorescent responses greater than the response due to agonist alone, were considered to be α7 nAChR PAM's. In a particular embodiment, the α7 nicotinic receptor agonist was choline, a more particular embodiment choline applied at a sub-maximal concentration of 100 μM. In a further setting of the present invention the compounds to be tested were applied prior to the α7 nicotinic receptor agonist, in a particular embodiment up to 10 minutes prior to the agonist.
A control response to choline was calculated on each plate from the difference in peak in fluorescence in wells receiving either choline or assay buffer alone. Compounds of the present invention were tested at a concentration range from 0.01 μM to 30 μM. Compounds were considered to have an interesting activity when they potentiated the choline signal at least with 200% when tested at a concentration of 30 μM (the efficacy of 100 μM choline was defined as 100% in the absence of a PAM). An EC50 (or pEC50) was determined as a concentration relating to half the maximal effect, when a clear sigmoidal curve with top plateau was obtained.
Background: A change in cytosolic calcium serves as a functional read-out for many receptors and channels.

T1 sequence (P36544 23-502): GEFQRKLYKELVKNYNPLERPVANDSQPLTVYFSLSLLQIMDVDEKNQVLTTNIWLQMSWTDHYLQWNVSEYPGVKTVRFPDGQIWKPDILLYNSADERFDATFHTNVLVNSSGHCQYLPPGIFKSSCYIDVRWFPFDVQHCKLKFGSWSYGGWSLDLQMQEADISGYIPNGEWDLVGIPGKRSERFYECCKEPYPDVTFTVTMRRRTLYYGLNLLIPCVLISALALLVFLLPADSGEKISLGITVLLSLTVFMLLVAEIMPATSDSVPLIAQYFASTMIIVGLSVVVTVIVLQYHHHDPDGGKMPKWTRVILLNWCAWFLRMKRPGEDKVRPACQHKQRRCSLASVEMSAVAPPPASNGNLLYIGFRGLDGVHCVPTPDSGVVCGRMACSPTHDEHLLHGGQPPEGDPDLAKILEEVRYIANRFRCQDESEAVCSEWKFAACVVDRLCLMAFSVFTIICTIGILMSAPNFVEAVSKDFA

For orientation: melting point means the temperature, or range, at which the solid turns liquid. Take `Cc1cc(-n2nc(Nc3ccc4c(c3)OC(F)(F)O4)cc2CCCO)ccn1` [Compound 92, 3-[(2,2-difluoro-1,3-benzodioxol-5-yl)amino]-1-(2-methyl-4-pyridinyl)-1H-pyrazole-5-propanol]: the melting point was determined as 163.3 °C. Further, at hα7-wt nAChR [1], the PAM type is reported as 2. Moreover, the EC50 on hα7-wt nAChR [2] is 2340 nM.
Taken in the same sequence, the figures for `CC[C@H](O)Cc1cc(Nc2cc(OC)cc(C(F)(F)F)c2)nn1-c1ccnc(C)c1` [Compound 39, (alphaS)-alpha-ethyl-3-[[3-methoxy-5-(trifluoromethyl)phenyl]amino]-1-(2-methyl-4-pyridinyl)-1H-pyrazole-5-ethanol] were 129.2 °C, 4 and 933 nM.
In turn, `Cc1cc(-n2nc(Nc3cccc(OC(F)(F)F)c3)cc2CC(=O)NC(C)C)ccn1` [Compound 115, N-(1-methylethyl)-1-(2-methyl-4-pyridinyl)-3-[[3-(trifluoromethoxy)phenyl]amino]-1H-pyrazole-5-acetamide] had a melting point of 228.3 °C. Also, the PAM type at hα7-wt nAChR [1] came out at 1. In addition, the EC50 on hα7-wt nAChR [2] is 389 nM.
Taken in the same sequence, the figures for `Cc1cc(-n2nc(Nc3cccc(Cl)c3F)cc2CC(=O)NCC2CC2)cc(C)n1` [Compound 80, 3-[(3-chloro-2-fluorophenyl)amino]-N-(cyclopropylmethyl)-1-(2,6-dimethyl-4-pyridinyl)-1H-pyrazole-5-acetamide] were 210.4 °C, 2 and 95.5 nM.
Turning to `CC[C@H](O)Cc1cc(Nc2ccc(F)c(F)c2F)nn1-c1ccnc(C)c1` [Compound 18, (alphaS)-alpha-ethyl-1-(2-methyl-4-pyridinyl)-3-[(2,3,4-trifluorophenyl)amino]-1H-pyrazole-5-ethanol], the melting point came to 149.1 °C. In addition, on hα7-wt nAChR [1], the PAM type turned out to be 1. Besides, the EC50 on hα7-wt nAChR [2] was 2400 nM.
On to `Cc1cc(-n2nc(Nc3ccc4c(c3)OC(F)(F)O4)cc2CC(=O)NC2CC2)ccn1` [Compound 100, N-cyclopropyl-3-[(2,2-difluoro-1,3-benzodioxol-5-yl)amino]-1-(2-methyl-4-pyridinyl)-1H-pyrazole-5-acetamide], for which the melting point amounted to 248.9 °C. Moreover, the PAM type on hα7-wt nAChR [1] is 2. Moreover, at hα7-wt nAChR [2], the EC50 is 1260 nM.
In the same order, the values of `CC[C@@H](O)Cc1cc(Nc2cccc(C(F)(F)F)c2)nn1-c1ccnc(C)c1` [Compound 35, (alphaR)-alpha-ethyl-1-(2-methyl-4-pyridinyl)-3-[[3-(trifluoromethyl)phenyl]amino]-1H-pyrazole-5-ethanol] are 170 °C, 2 and 692 nM.
Taken in the same sequence, the figures for `COc1cc(Nc2cc(CC(=O)NC3CC3)n(-c3ccnc(C)c3)n2)cc(C(F)(F)F)c1` [Compound 46, N-cyclopropyl-3-[[3-methoxy-5-(trifluoromethyl)phenyl]amino]-1-(2-methyl-4-pyridinyl)-1H-pyrazole-5-acetamide] were 251.3 °C, 4 and 234 nM.
Taken in the same sequence, the figures for `CCNC(=O)Cc1cc(Nc2cc(OC)cc(C(F)(F)F)c2)nn1-c1ccnc(C)c1` [Compound 45, N-ethyl-3-[[3-methoxy-5-(trifluoromethyl)phenyl]amino]-1-(2-methyl-4-pyridinyl)-1H-pyrazole-5-acetamide] were 248.6 °C, 4 and 200 nM.
`CC[C@@H](O)Cc1cc(Nc2ccc(F)c(F)c2)nn1-c1ccnc(C)c1` [Compound 10, (alphaR)-3-[(3,4-difluorophenyl)amino]-alpha-ethyl-1-(2-methyl-4-pyridinyl)-1H-pyrazole-5-ethanol] returned a melting point of 164.7 °C. Moreover, at hα7-wt nAChR [1], the PAM type is reported as 2. In addition, at hα7-wt nAChR [2], the EC50 is 832 nM.
In the same order, the values of `CC[C@H](O)Cc1cc(Nc2cc(F)c(F)cc2F)nn1-c1ccnc(C)c1` [Compound 21, (alphaS)-alpha-ethyl-1-(2-methyl-4-pyridinyl)-3-[(2,4,5-trifluorophenyl)amino]-1H-pyrazole-5-ethanol] are 166.6 °C, 2 and 3470 nM.
`Cc1cc(-n2nc(Nc3cccc(Cl)c3F)cc2CC(=O)NC2CC2)ccn1` [Compound 76, 3-[(3-chloro-2-fluorophenyl)amino]-N-cyclopropyl-1-(2-methyl-4-pyridinyl)-1H-pyrazole-5-acetamide] gave a melting point of 192.6 °C. At hα7-wt nAChR [1], the PAM type is 3. Also, the EC50 at hα7-wt nAChR [2] was 1100 nM.
As to `COCc1cc(Nc2ccc(F)c(F)c2)nn1-c1ccnc(C)c1` [Compound 22, N-(3,4-difluorophenyl)-5-(methoxymethyl)-1-(2-methyl-4-pyridinyl)-1H-pyrazol-3-amine], the melting point is 184.2 °C. On hα7-wt nAChR [1], the PAM type is on record as 0. Besides, the EC50 on hα7-wt nAChR [2] is 1910 nM. For the same compound, the Emax at hα7-wt nAChR [2] (read-out: % Efficacy) worked out at 963%.
`CNC(=O)Cc1cc(Nc2cccc(OC(F)(F)F)c2)nn1-c1cc(C)nc(C)c1` [Compound 112, 1-(2,6-dimethyl-4-pyridinyl)-N-methyl-3-[[3-(trifluoromethoxy)phenyl]amino]-1H-pyrazole-5-acetamide] gave a melting point of 222 °C. Besides, on hα7-wt nAChR [1], the PAM type amounted to 2. Moreover, on hα7-wt nAChR [2], the EC50 is 1290 nM.
Taken in the same sequence, the figures for `CC[C@H](O)Cc1cc(Nc2cccc(Cl)c2)nn1-c1ccnc(C)c1` [Compound 57, (alphaS)-3-[(3-chlorophenyl)amino]-alpha-ethyl-1-(2-methyl-4-pyridinyl)-1H-pyrazole-5-ethanol] were 149.3 °C, 2 and 2240 nM.
